Data from ChEMBL document CHEMBL1154782, “Discovery of Trp-His and His-Arg analogues as new structural classes of short antimicrobial peptides” (J Med Chem, 2009).
In brackets after ≈: the same amount, converted by molar mass.

Assays:
[1] = test system: Pseudomonas aeruginosa; assay: Antibacterial activity against Pseudomonas aeruginosa ATCC 9027; assay type: functional, organism-based
[2] = test system: Pseudomonas aeruginosa; assay: Antibacterial activity against Pseudomonas aeruginosa ATCC 9027 after 15 to 18 hrs under aerobic condition by modified broth microdilution method; assay type: functional
[3] = test system: Klebsiella pneumoniae; assay: Antibacterial activity against Klebsiella pneumoniae ATCC 700603; assay type: functional, organism-based
[4] = test system: Escherichia coli; assay: Antibacterial activity against Escherichia coli ATCC 35218 after 15 to 18 hrs under aerobic condition by modified broth microdilution method; assay type: functional
[5] = test system: Staphylococcus aureus; assay: Antibacterial activity against methicillin-resistant Staphylococcus aureus DSM 50128509 after 15 to 18 hrs under aerobic condition by modified broth microdilution method; assay type: functional
[6] = test system: Candida albicans; assay: Antifungal activity against Candida albicans ATCC 10231 after 15 to 18 hrs under aerobic condition by modified broth microdilution method; assay type: functional
[7] = test system: Staphylococcus epidermidis; assay: Antibacterial activity against methicillin-resistant Staphylococcus epidermidis DSM 50160384 after 15 to 18 hrs under aerobic condition by modified broth microdilution method; assay type: functional
[8] = test system: L929; assay: Cytotoxicity against mouse L929 cells up to 200 ug/mL after 5 days by MTT assay; assay type: cell-based; conditions: l929, 120 h
[9] = test system: Staphylococcus epidermidis; assay: Antibacterial activity against methicillin-resistant Staphylococcus epidermidis DSM 50160384; assay type: functional, organism-based
[10] = test system: Escherichia coli; assay: Antibacterial activity against Escherichia coli ATCC 35218; assay type: functional, organism-based
[11] = test system: Staphylococcus aureus; assay: Antibacterial activity against methicillin-resistant Staphylococcus aureus DSM 50128509; assay type: functional, organism-based
[12] = test system: Klebsiella pneumoniae; assay: Antibacterial activity against Klebsiella pneumoniae ATCC 700603 after 15 to 18 hrs under aerobic condition by modified broth microdilution method; assay type: functional
[13] = test system: Candida albicans; assay: Antifungal activity against Candida albicans ATCC 10231; assay type: functional, organism-based

SMILES: COC(=O)[C@H](CCCNC(=N)N)NC(=O)[C@H](Cc1c[nH]c(C23CC4CC(CC(C4)C2)C3)n1)NC(=O)OC(C)(C)C
- IC50 [1]: 25.7 µg/mL (≈ 45.9 µM)
- MIC [2]: 100 µg/mL (≈ 179 µM)
- IC50 [3]: 31.5 µg/mL (≈ 56.2 µM)
- MIC [4]: 100 µg/mL (≈ 179 µM)
- MIC [5]: 50 µg/mL (≈ 89.3 µM)
- MIC [6]: 200 µg/mL (≈ 357 µM)
- MIC [7]: 50 µg/mL (≈ 89.3 µM)
- Activity [8]: Non-toxic
- IC50 [9]: 6.87 µg/mL (≈ 12.3 µM)
- IC50 [10]: 8.33 µg/mL (≈ 14.9 µM)
- IC50 [11]: 9.77 µg/mL (≈ 17.5 µM)
- MIC [12]: 200 µg/mL (≈ 357 µM)
- IC50 [13]: 16.1 µg/mL (≈ 28.8 µM)
